Reference: ChEMBL document CHEMBL3046749, “Synthesis and antimicrobial activity of novel bis-azaphenothiazines” (2013)
≈ marks a conversion by molar mass, not a printed value. Calls of active or inactive are those of the source. The rule behind the calls is not given here.

Columns and labels:
Type in all cases: functional
Bacillus subtilis [1] = test: Antibacterial activity against Bacillus subtilis MTCC 441 after 16 hr by cup-plate method; details: MTCC 441, 16 h
Klebsiella pneumoniae [2] = test: Antibacterial activity against Klebsiella pneumoniae MTCC 432 after 16 hr by cup-plate method; details: MTCC 432, 16 h
[3] = test system: Staphylococcus epidermidis; test: Antibacterial activity against Staphylococcus epidermidis MTCC 435 after 16 hr by cup-plate method; details: MTCC 435, 16 h
Pseudomonas aeruginosa [4] = test: Antibacterial activity against Pseudomonas aeruginosa MTCC 424 at 100 ug/ml after 16 to 18 hr by cup-plate method; details: read-out: IZ
Escherichia coli [5] = test: Antibacterial activity against Escherichia coli MTCC 443 after 16 hr by cup-plate method; details: MTCC 443, 16 h
Klebsiella pneumoniae [6] = test: Antibacterial activity against Klebsiella pneumoniae MTCC 432 at 100 ug/ml after 16 to 18 hr by cup-plate method; details: read-out: IZ
Salmonella typhi [7] = test: Antibacterial activity against Salmonella enterica subsp. enterica serovar Typhi MTCC 733 after 16 hr by cup-plate method; details: MTCC 733, 16 h
Bacillus subtilis [8] = test: Antibacterial activity against Bacillus subtilis MTCC 441 at 100 ug/ml after 16 to 18 hr by cup-plate method; details: read-out: IZ
Salmonella typhi [9] = test: Antibacterial activity against Salmonella enterica subsp. enterica serovar Typhi MTCC 733 at 100 ug/ml after 16 to 18 hr by cup-plate method; details: read-out: IZ
Staphylococcus aureus [10] = test: Antibacterial activity against Staphylococcus aureus MTCC 096 after 16 hr by cup-plate method; details: MTCC 096, 16 h
[11] = test system: Staphylococcus epidermidis; test: Antibacterial activity against Staphylococcus epidermidis MTCC 435 at 100 ug/ml after 16 to 18 hr by cup-plate method; details: read-out: IZ
Pseudomonas aeruginosa [12] = test: Antibacterial activity against Pseudomonas aeruginosa MTCC 424 after 16 hr by cup-plate method; details: MTCC 424, 16 h
Staphylococcus aureus [13] = test: Antibacterial activity against Staphylococcus aureus MTCC 096 at 100 ug/ml after 16 to 18 hr by cup-plate method; details: read-out: IZ
Aspergillus flavus [14] = test: Antifungal activity against Aspergillus flavus MTCC 277 after 28 to 30 hr by cup-plate method
Escherichia coli [15] = test: Antibacterial activity against Escherichia coli MTCC 443 at 100 ug/ml after 16 to 18 hr by cup-plate method; details: read-out: IZ
Candida albicans [16] = test: Antifungal activity against Candida albicans MTCC 227 at 100 ug/ml after 28 to 30 hr by cup-plate method; details: for zone of inhibition at 100 µg/mL: read-out: IZ
Aspergillus flavus [17] = test: Antifungal activity against Aspergillus flavus MTCC 277 at 100 ug/ml after 28 to 30 hr by cup-plate method; details: for zone of inhibition at 100 µg/mL: read-out: IZ
Aspergillus fumigatus [18] = test: Antifungal activity against Aspergillus fumigatus MTCC 343 after 28 to 30 hr by cup-plate method
Candida albicans [19] = test: Antifungal activity against Candida albicans MTCC 227 after 28 to 30 hr by cup-plate method
Aspergillus niger [20] = test: Antifungal activity against Aspergillus niger MTCC 282 at 100 ug/ml after 28 to 30 hr by cup-plate method; details: for zone of inhibition at 100 µg/mL: read-out: IZ
Aspergillus niger [21] = test: Antifungal activity against Aspergillus niger MTCC 282 after 28 to 30 hr by cup-plate method
Aspergillus fumigatus [22] = test: Antifungal activity against Aspergillus fumigatus MTCC 343 at 100 ug/ml after 28 to 30 hr by cup-plate method; details: for zone of inhibition at 100 µg/mL: read-out: IZ

Row | Structure (SMILES) | MIC (Bacillus subtilis [1]) [µg/mL] | MIC (Klebsiella pneumoniae [2]) [µg/mL] | MIC [3] [µg/mL] | zone of inhibition at 100 µg/mL (Pseudomonas aeruginosa [4]) [mm] | MIC (Escherichia coli [5]) [µg/mL] | zone of inhibition at 100 µg/mL (Klebsiella pneumoniae [6]) [mm] | zone of inhibition at 100 µg/mL (Bacillus subtilis [8]) [mm] | zone of inhibition at 100 µg/mL (Salmonella typhi [9]) [mm] | MIC (Staphylococcus aureus [10]) [µg/mL] | zone of inhibition at 100 µg/mL [11] [mm] | MIC (Pseudomonas aeruginosa [12]) [µg/mL] | zone of inhibition at 100 µg/mL (Staphylococcus aureus [13]) [mm] | MIC (Aspergillus flavus [14]) [µg/mL] | zone of inhibition at 100 µg/mL (Escherichia coli [15]) [mm] | zone of inhibition at 100 µg/mL (Candida albicans [16]) [mm] | zone of inhibition at 100 µg/mL (Aspergillus flavus [17]) [mm] | MIC (Aspergillus fumigatus [18]) [µg/mL] | MIC (Candida albicans [19]) [µg/mL] | zone of inhibition at 100 µg/mL (Aspergillus niger [20]) [mm] | MIC (Aspergillus niger [21]) [µg/mL] | further results
1 | O=C(O)c1cn(C2CC2)c2cc(N3CCNCC3)c(F)cc2c1=O [CIPROFLOXACIN] | 6.25 (≈ 18.9 µM) | 6.25 (≈ 18.9 µM) | 6.25 (≈ 18.9 µM) | 18 | 6.25 (≈ 18.9 µM) | 17 | 18 | 19 | 6.25 (≈ 18.9 µM) | 16 | 6.25 (≈ 18.9 µM) | 19 |  |  |  |  |  |  |  |  | MIC (Salmonella typhi [7]): 6.25 mM (≈ 2070 µg/mL)
2 | CC(=O)Nc1ccc(Br)cc1Sc1ncccc1[N+](=O)[O-] | 25 (≈ 67.9 µM) | 6.25 (≈ 17 µM) | 6.25 (≈ 17 µM) | 14 | > 50 | 13 | 12 | 11 | 25 (≈ 67.9 µM) | 13 | 6.25 (≈ 17 µM) | 12 | 12.5 (≈ 33.9 µM) | 11 | 13 | 12 | 6.25 (≈ 17 µM) | 6.25 (≈ 17 µM) | 16 | 6.25 (≈ 17 µM) | zone of inhibition at 100 µg/mL (Aspergillus fumigatus [22]): 14 mm
3 | c1ccc2c(c1)Sc1cccnc1N2CCCCN1c2ccccc2Sc2cccnc21 | > 50 | 25 (≈ 55 µM) | 12.5 (≈ 27.5 µM) | 13 | > 50 | 12 | 10 | 12 | 50 (≈ 110 µM) | 12 | 6.25 (≈ 13.7 µM) | 11 | > 50 | 11 |  |  | > 50 | > 50 |  | > 50 | inhibition zone (IZ) (Candida albicans [16]): inactive; inhibition zone (IZ) (Aspergillus flavus [17]): inactive; inhibition zone (IZ) (Aspergillus niger [20]): inactive; inhibition zone (IZ) (Aspergillus fumigatus [22]): inactive
4 | Brc1ccc2c(c1)Sc1cccnc1N2CCCCN1c2ccc(Br)cc2Sc2cccnc21 | 50 (≈ 81.6 µM) | 50 (≈ 81.6 µM) | 25 (≈ 40.8 µM) | 12 | 12.5 (≈ 20.4 µM) | 11 | 11 | 10 | 12.5 (≈ 20.4 µM) | 11 | 12.5 (≈ 20.4 µM) | 12 | > 50 | 12 | 11 | 10 | 12.5 (≈ 20.4 µM) | 50 (≈ 81.6 µM) | 11 | 50 (≈ 81.6 µM) | zone of inhibition at 100 µg/mL (Aspergillus fumigatus [22]): 12 mm
